In patent US10457655B2, “Compounds and compositions for inhibition of FASN” (FORMA Therapeutics, Inc., priority 2013, dated 2019):
pIC50: −log10 of the molar value.

These molecules were tested against FASN enzyme (Homo sapiens, UniProt P49327) (assay: Enzymatic Assay for FASN Inhibitors). Details: not given.
Format: biochemical
Protocol: Assays were performed in a 384-well black plate to measure the inhibition of FASN activities by individual compounds herein disclosed. An aliquot of 250 nL of compound was incubated with 10 μL of 40 nM FASN enzyme in assay buffer (50 mM HEPES pH=7.3, 0.5 mM EDTA, 1 mM Ascorbate, 100 mM NaCl and 0.04% TritonX-100) in each well at 25° C. for 60 minutes. After the plate was centrifuged briefly, 10 μL of substrate mix (20 μM Acetyl-CoA, 60 μM Malonyl-CoA, and 100 μM NADPH in assay buffer) was added to each well. The reaction was maintained at 25° C. for 90 minutes. The reaction was then quenched by adding 10 μL of 90 μM 7-Diethylamino-3-(4′-Maleimidylpheynyl)-4-Methylcoumarin in 50/50 Ethanol/H2O solution. The assay plate was incubated at 25° C. for 15 minutes, and read on a plate reader with excitation and emission wavelength at 360 nm and 530 nm, respectively. The IC50 of a given compound was calculated by fitting the dose response curve with a four parameter logistic equation.

Chain of FASN enzyme (P49327 whole entry): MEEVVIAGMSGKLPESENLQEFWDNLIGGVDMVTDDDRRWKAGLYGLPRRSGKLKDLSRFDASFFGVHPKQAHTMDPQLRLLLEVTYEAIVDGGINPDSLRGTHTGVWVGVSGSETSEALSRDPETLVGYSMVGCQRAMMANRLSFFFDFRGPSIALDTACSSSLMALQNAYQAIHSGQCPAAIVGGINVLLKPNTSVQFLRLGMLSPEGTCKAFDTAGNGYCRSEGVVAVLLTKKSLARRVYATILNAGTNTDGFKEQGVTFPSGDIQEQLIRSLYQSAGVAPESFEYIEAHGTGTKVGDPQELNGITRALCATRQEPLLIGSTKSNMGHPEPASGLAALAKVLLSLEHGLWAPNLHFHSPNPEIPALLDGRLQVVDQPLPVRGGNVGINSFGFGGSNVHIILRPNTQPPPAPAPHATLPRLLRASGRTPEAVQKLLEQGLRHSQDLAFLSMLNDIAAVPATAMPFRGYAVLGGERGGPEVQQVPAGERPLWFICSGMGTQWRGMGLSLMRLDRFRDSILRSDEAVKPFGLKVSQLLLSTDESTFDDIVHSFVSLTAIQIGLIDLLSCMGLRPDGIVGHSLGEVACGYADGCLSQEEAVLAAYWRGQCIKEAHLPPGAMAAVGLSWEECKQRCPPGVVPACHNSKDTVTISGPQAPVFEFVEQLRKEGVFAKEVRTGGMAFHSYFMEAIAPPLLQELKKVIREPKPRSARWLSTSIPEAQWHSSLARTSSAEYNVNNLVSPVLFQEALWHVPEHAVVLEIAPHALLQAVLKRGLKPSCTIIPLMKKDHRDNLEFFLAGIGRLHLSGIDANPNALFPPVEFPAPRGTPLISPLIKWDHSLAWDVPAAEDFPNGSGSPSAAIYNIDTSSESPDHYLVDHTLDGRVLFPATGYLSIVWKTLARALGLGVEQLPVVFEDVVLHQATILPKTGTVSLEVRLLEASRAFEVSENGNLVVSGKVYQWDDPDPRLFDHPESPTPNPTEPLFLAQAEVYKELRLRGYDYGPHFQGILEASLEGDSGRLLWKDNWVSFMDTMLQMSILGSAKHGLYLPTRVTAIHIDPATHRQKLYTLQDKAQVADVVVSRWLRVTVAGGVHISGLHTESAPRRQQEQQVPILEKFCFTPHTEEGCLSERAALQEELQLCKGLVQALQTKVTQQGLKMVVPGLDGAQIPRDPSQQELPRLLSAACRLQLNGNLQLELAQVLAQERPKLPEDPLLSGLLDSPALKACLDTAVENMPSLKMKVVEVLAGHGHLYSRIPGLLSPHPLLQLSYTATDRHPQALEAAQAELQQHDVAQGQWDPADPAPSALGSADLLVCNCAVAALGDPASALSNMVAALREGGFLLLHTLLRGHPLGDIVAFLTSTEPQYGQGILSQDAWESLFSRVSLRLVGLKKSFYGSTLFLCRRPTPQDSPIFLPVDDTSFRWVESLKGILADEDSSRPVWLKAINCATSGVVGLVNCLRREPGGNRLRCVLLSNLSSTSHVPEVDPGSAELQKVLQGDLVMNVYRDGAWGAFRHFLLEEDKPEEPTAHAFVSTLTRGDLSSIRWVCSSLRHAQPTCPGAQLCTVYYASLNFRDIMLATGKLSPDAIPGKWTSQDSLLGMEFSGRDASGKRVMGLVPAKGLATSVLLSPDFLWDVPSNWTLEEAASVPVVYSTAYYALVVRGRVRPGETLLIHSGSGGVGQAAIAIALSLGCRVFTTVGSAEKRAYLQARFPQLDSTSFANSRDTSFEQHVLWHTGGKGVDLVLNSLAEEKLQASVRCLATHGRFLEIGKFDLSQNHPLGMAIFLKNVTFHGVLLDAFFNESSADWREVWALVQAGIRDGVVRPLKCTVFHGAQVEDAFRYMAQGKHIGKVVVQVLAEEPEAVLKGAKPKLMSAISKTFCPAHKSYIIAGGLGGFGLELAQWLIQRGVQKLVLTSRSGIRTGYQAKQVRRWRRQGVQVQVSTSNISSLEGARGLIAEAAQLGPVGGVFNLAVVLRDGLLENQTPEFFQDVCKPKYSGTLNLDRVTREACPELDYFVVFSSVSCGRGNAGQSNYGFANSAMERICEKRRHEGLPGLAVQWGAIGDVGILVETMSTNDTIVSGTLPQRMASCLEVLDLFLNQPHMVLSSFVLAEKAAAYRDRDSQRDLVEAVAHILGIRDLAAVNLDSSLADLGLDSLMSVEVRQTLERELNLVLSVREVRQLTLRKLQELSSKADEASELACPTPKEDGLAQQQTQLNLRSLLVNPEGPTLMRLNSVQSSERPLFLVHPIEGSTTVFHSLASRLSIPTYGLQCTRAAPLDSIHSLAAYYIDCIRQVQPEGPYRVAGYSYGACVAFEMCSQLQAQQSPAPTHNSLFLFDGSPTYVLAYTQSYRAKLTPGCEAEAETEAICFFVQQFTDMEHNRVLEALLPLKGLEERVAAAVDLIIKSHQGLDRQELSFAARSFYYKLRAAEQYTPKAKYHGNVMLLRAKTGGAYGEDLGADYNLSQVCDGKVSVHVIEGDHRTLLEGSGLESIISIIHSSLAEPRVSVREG

pIC50	SMILES
> 6.30	N#CC1(c2cccc(-c3ccc(C(=O)N4CCN(C(=O)C5(O)CC5)CC4)cc3)c2)CC1
> 6.30	Cn1cnc2cc(-c3ccc(C(=O)N4CCN(C(=O)C5(O)CC5)CC4(C)C)cc3)ccc21
> 6.30	Cn1cc2ccc(-c3ccc(C(=O)N4CCN(C(=O)C5(O)CC5)CC4)c(F)c3)cc2n1
> 6.30	Cc1nn(-c2ccc(C(=O)N3CCN(C(=O)C4(O)CC4)CC3)c(F)c2)c2ccccc12
> 6.30	Cc1n[nH]c2cc(-c3ccc(C(=O)N4CCN(C(=O)C5(O)CC5)CC4)c(F)c3)ccc12
> 6.30	NC1(C(=O)N2CCN(C(=O)c3ccc(-c4n[nH]c5c(F)cccc45)cc3F)CC2)CC1
> 6.30	O=C(c1ccc(-c2cccc(S(=O)(=O)C3CC3)c2)c(Cl)c1)N1CCN(C(=O)C2(O)CC2)CC1
> 6.30	Cn1cnc2cc(-c3ccc(C(=O)N4CCN(C(=O)C5(N)CCC5)CC4)cc3)ccc21
> 6.30	Cn1ncc2ccc(-c3ccc(C(=O)N4CCN(C(=O)C5(N)CC5)CC4)cc3)cc21
> 6.30	O=C(c1ccc(N2CCCc3ccccc32)cc1)N1CCN(C(=O)C2(O)CC2)CC1
> 6.30	Cn1nc2ccc(-c3ccc(C(=O)N4CCN(C(=O)C5(O)CC5)CC4)cc3)cc2n1
> 6.30	Cc1n[nH]c2c(-c3ccc(C(=O)N4CCN(C(=O)C5(N)CC5)CC4)cc3)cccc12
> 6.30	O=C(c1ccc(-c2ccc(-c3cn[nH]c3)cc2)cc1)N1CCN(C(=O)C2(O)CC2)CC1
> 6.30	Cc1nc2cc(Cl)cc(-c3ccc(C(=O)N4CCN(C(=O)C5(O)CC5)CC4)cc3)c2[nH]1
> 6.30	O=C(c1ccc(-c2cc3[nH]nnc3cc2F)cc1)N1CCN(C(=O)C2(O)CC2)CC1
> 6.30	CC1(C)CN(C(=O)C2(O)CC2)CCN1C(=O)c1ccc(-c2nc3ccc(F)cc3o2)cc1
> 6.30	O=C(c1ccc(N2CCc3ccc(F)cc3C2)cc1)N1CCN(C(=O)C2(O)CC2)CC1
> 6.30	O=C(c1ccc(-c2ccc(Cl)cc2)cc1)N1CCN(C(=O)C2(O)CC2)CC1
> 6.30	C[C@H]1CN(C(=O)c2ccc(-c3ccc(Cl)cc3F)cc2)CCN1C(=O)C1(O)CC1
> 6.30	C[C@H]1CN(C(=O)c2ccc(-c3nc4ccc(F)cc4o3)cc2)CCN1C(=O)C1(O)CC1
> 6.30	C[C@@H]1CN(C(=O)c2ccc(-c3nc4ccc(F)cc4o3)cc2)C[C@H](C)N1C(=O)C1(O)CC1
> 6.30	C[C@@H]1CN(C(=O)C2(O)CC2)CCN1C(=O)c1ccc(-c2ccc(Cl)cc2F)cc1
> 6.30	C[C@@H]1CN(C(=O)C2(O)CC2)C[C@H](C)N1C(=O)c1ccc(-c2ccc3c(c2)ncn3C)cc1
> 6.30	C[C@H]1CN(C(=O)C2(O)CC2)CCN1C(=O)c1ccc(-c2ccc3c(c2)ncn3C)cc1
> 6.30	COc1ccc(OC(F)(F)F)cc1-c1ccc(C(=O)N2CCN(C(=O)C3(O)CC3)CC2)cc1
> 6.30	O=C(c1ccc(-c2cccc3nsnc23)cc1)N1CCN(C(=O)C2(O)CC2)CC1
> 6.30	O=C(c1ccc(-c2cccc(OCC3CC3)c2)cc1)N1CCN(C(=O)C2(O)CC2)CC1

pIC50	SMILES
> 6.30	O=C(c1ccc(-c2nc3ccccn3c2Cl)cc1)N1CCN(C(=O)C2(O)CC2)CC1
> 6.30	O=C(c1ccc(-c2cccc(OC3CC3)c2)cc1)N1CCN(C(=O)C2(O)CC2)CC1
> 6.30	O=C(c1ccc(-c2cc(F)c3[nH]ccc3c2)cc1)N1CCN(C(=O)C2(O)CC2)CC1
> 6.30	Cn1ccc2cc(-c3ccc(C(=O)N4CCN(C(=O)C5(O)CC5)CC4)cn3)ccc21
> 6.30	Cc1nn(C)c2ccc(-c3ccc(C(=O)N4CCN(C(=O)C5CCO5)CC4)cc3)cc12 (stereo not shown)
> 6.30	CC1(c2cccc(-c3ccc(C(=O)N4CCN(C(=O)C5(O)CC5)CC4)cc3)c2)NC(=O)NC1=O (stereo not shown)
> 6.30	O=C(c1ccc(-c2ccc3[nH]c(=O)ccc3c2)cc1)N1CCN(C(=O)C2(O)CC2)CC1
> 6.30	O=C(c1ccc(-c2cccc(NS(=O)(=O)C3CCCC3)c2)cc1)N1CCN(C(=O)C2(O)CC2)CC1
> 6.30	O=C(Nc1cccc(-c2ccc(C(=O)N3CCN(C(=O)C4(O)CC4)CC3)cc2)c1)C1CC1
> 6.30	N#CC1(c2cccc(-c3ccc(C(=O)N4CCN(C(=O)C5(O)CC5)CC4)c(F)c3)c2)CC1 [1-(3-{3-fluoro-4-[4-(1-hydroxycyclopropanecarbonyl)piperazine-1-carbonyl]phenyl}phenyl)cyclopropane-1-carbonitrile]
> 6.30	N#CC1(c2cccc(-c3ccc(C(=O)N4CCN(C(=O)C5(N)CC5)CC4)cc3)c2)CC1 [1-(3-{4-[4-(1-aminocyclopropanecarbonyl)piperazine-1-carbonyl]phenyl}phenyl)cyclopropane-1-carbonitrile]
> 6.30	N#CC1(c2cccc(-c3ccc(C(=O)N4CCN(C(=O)C5(O)CC5)CC4)cc3)c2)CCC1 [1-(3-{4-[4-(1-hydroxycyclopropanecarbonyl)piperazine-1-carbonyl]phenyl}phenyl)cyclobutane-1-carbonitrile]
> 6.30	O=C(c1ccc(-c2cccc(N3CCNC3=O)c2)cc1)N1CCN(C(=O)C2(O)CC2)CC1 [1-(3-{4-[4-(1-hydroxycyclopropanecarbonyl)piperazine-1-carbonyl]phenyl}phenyl)imidazolidin-2-one]
> 6.30	O=C(c1ccc(-c2cccc(N3CCCC3=O)c2)cc1)N1CCN(C(=O)C2(O)CC2)CC1 [1-(3-{4-[4-(1-hydroxycyclopropanecarbonyl)piperazine-1-carbonyl]phenyl}phenyl)pyrrolidin-2-one]
> 6.30	O=C(c1ccc(-c2ccc3c(c2)ncn3CCO)cc1)N1CCN(C(=O)C2(O)CC2)CC1 [1-(4-{4-[1-(2-hydroxyethyl)-1H-1,3-benzodiazol-5-yl]benzoyl}piperazine-1-carbonyl)cyclopropan-1-ol]
> 6.30	O=C(c1ccc(-c2ccc3ncn(CCO)c3c2)cc1)N1CCN(C(=O)C2(O)CC2)CC1 [1-(4-{4-[1-(2-hydroxyethyl)-1H-1,3-benzodiazol-6-yl]benzoyl}piperazine-1-carbonyl)cyclopropan-1-ol]
> 6.30	O=C(c1ccc(-c2ccc3[nH]c(CO)nc3c2)cc1)N1CCN(C(=O)C2(O)CC2)CC1 [1-(4-{4-[2-(hydroxymethyl)-1H-1,3-benzodiazol-5-yl]benzoyl}piperazine-1-carbonyl)cyclopropan-1-ol]
> 6.30	Nc1nc(-c2cccc(-c3ccc(C(=O)N4CCN(C(=O)C5(O)CC5)CC4)cc3)c2)cs1 [1-(4-{4-[3-(2-amino-1,3-thiazol-4-yl)phenyl]benzoyl}piperazine-1-carbonyl)cyclopropan-1-ol]
> 6.30	Nc1cc(-c2cccc(-c3ccc(C(=O)N4CCN(C(=O)C5(O)CC5)CC4)c(F)c3)c2)no1 [1-(4-{4-[3-(5-amino-1,2-oxazol-3-yl)phenyl]-2-fluorobenzoyl}piperazine-1-carbonyl)cyclopropan-1-ol]
> 6.30	Nc1cc(-c2cccc(-c3ccc(C(=O)N4CCN(C(=O)C5(O)CC5)CC4)cc3)c2)no1 [1-(4-{4-[3-(5-amino-1,2-oxazol-3-yl)phenyl]benzoyl}piperazine-1-carbonyl)cyclopropan-1-ol]
> 6.30	Nc1nc(-c2cccc(-c3ccc(C(=O)N4CCN(C(=O)C5(O)CC5)CC4)cc3)c2)n[nH]1 [1-(4-{4-[3-(5-amino-1H-1,2,4-triazol-3-yl)phenyl]benzoyl}piperazine-1-carbonyl)cyclopropan-1-ol]
> 6.30	Nc1cc(-c2cccc(-c3ccc(C(=O)N4CCN(C(=O)C5(O)CC5)CC4)cc3)c2)n[nH]1 [1-(4-{4-[3-(5-amino-1H-pyrazol-3-yl)phenyl]benzoyl}piperazine-1-carbonyl)cyclopropan-1-ol]
> 6.30	Cc1nc(-c2cccc(-c3ccc(C(=O)N4CCN(C(=O)C5(O)CC5)CC4)cc3)c2)no1 [1-(4-{4-[3-(5-methyl-1,2,4-oxadiazol-3-yl)phenyl]benzoyl}piperazine-1-carbonyl)cyclopropan-1-ol]
> 6.30	Cc1nnc(-c2cccc(-c3ccc(C(=O)N4CCN(C(=O)C5(O)CC5)CC4)cc3)c2)s1 [1-(4-{4-[3-(5-methyl-1,3,4-thiadiazol-2-yl)phenyl]benzoyl}piperazine-1-carbonyl)cyclopropan-1-ol]
> 6.30	O=C(c1ccc(-c2cccc(S(=O)(=O)C3CC3)c2)cc1F)N1CCN(C(=O)C2(O)CC2)CC1 [1-(4-{4-[3-(cyclopropanesulfonyl)phenyl]-2-fluorobenzoyl}piperazine-1-carbonyl)cyclopropan-1-ol]
> 6.30	Cn1cc(-c2ccc(-c3ccc(C(=O)N4CCN(C(=O)C5(O)CC5)CC4)cc3)cc2)cn1 [1-(4-{4-[4-(1-methyl-1H-pyrazol-4-yl)phenyl]benzoyl}piperazine-1-carbonyl)cyclopropan-1-ol]

Same assay, conditions: FASN enzymatic assay; Table 2-2

pIC50	SMILES
5.30 to 6.30	O=C(c1ccc(-c2ccc3nncn3n2)cc1)N1CCN(C(=O)C2(O)CC2)CC1

Same assay, conditions: FASN enzymatic assay; Table 2-3

pIC50	SMILES
≤ 5.30	O=C(c1ccc(-c2ccc(Cl)cc2F)cc1)N1CCN(C(=O)C2(O)CC2)[C@H](CO)C1
≤ 5.30	C[C@@H]1CN(C(=O)C2(O)CC2)[C@@H](C)CN1C(=O)c1ccc(-c2ccc3cnccc3c2)cc1
≤ 5.30	O=C(c1cccc(Oc2ccccc2)c1)N1CCN(C(=O)C2(O)CC2)CC1 [1-({4-[(3-phenoxyphenyl)carbonyl]piperazin-1-yl}carbonyl)cyclopropan-1-ol]
≤ 5.30	O=C(c1ccc(Oc2ccccc2)cc1)N1CCN(C(=O)C2(O)CC2)CC1 [1-({4-[(4-phenoxyphenyl)carbonyl]piperazin-1-yl}carbonyl)cyclopropan-1-ol]
